Reference: patent US20230002346A1, “NEW COMPOUNDS AND METHODS” (BenevolentAl Bio Limited, priority 2019, published 2023)

Columns and labels:
[1] = Rat PK profile (bioavailability, clearance, half-life); assay type: in vivo; details: male, Sprague Dawley, plasma, i.v. dose 1 mg/kg
Method: Male Sprague Dawley Rats 300-350 g (Charles River, UK) were group housed, n=3, under a 12 h light/dark cycle with food and water available ad libitum. At 17:00 on the day prior to dosing all food was removed. On the day of dosing animals were weighed, tail marked and dosed via oral gavage with compound at 3 mg/kg in a volume of 5 mL/kg. Animals were culled at 30 min, 1 h and 4 h post dose via intra-peritoneal administration of pentobarbital. Post mortem blood was withdrawn via cardiac puncture, and briefly stored in K2 EDTA blood tubes on ice before being spun at 14,000 g for 4 min at 4° C. Plasma was withdrawn into a 96 well plate, placed on dry ice and stored at −80° C. Brains were quickly dissected and placed on dry ice before storage at −80° C. Bioanalysis of plasma and brain samples is performed as detailed below. Methods were prepared with guidance from industry standard documents.^i,ii
A 10 mM DMSO stock is used to prepare spiking solutions of test compound in the range of 10-100,000 ng/mL in diluent (MeCN:water, 1;1). Calibration lines are prepared in control male Sprague-Dawley Rat plasma at known concentrations in the range of 1-10000 ng/mL by spiking 2.5 μL of calibration spiking solution into 25 μL control plasma. Experimental samples are thawed to RT and 25 μL aliquots are extracted alongside the calibration lines using protein precipitation (agitation for at least 5 min at RT with 400 μL of MeCN containing 25 ng/mL tolbutamide as an internal standard). Protein precipitates are separated from the extracted test compound by centrifugation at 4000 rpm for 5 min, 4° C. The resulting supernatants are diluted in a ratio of 1:2 with a relevant diluent (e.g. 0.1% formic acid in water or 1:1 MeOH:water). Samples are analysed by UPLC-MS/MS on either an API6500 QTrap or Waters 30 TQS mass spectrometer using previously optimised analytical MRM (multiple reaction monitoring) methods, specific to the test compound. The concentration of test compound in isolated samples is determined following analysis of the samples against the two replicates of the calibration line, injected before and after the sample set with an appropriate regression and weighting used. Only samples within 20% of the expected test concentration are included in the calibration line and any samples that fall outside of the limits of the calibration line will be deemed to be less than or above the limit of quantification (LLoQ/ALoQ).
Pharmacokinetic parameters such as bioavailability (% F), clearance (CL), half-life (T½) and volume of distribution are calculated by non-compartmental analysis using Phoenix Winnonlin 64 software (build 8.0). The bioavailability was calculated from p.o. dosed rats, whereas the clearance and half-life were calculated from i.v. dosed rats. Briefly, in vivo plasma concentrations, timepoints and dose values are imported into the software in a compatible format. Plasma concentration for each animal is plotted against time, and the elimination phase identified and selected. The area under the curve for each plot is calculated using a linear trapezoidal linear interpolation from which pharmacokinetic parameters can subsequently be determined. […] Compounds of the invention have much improved clearance (CL) and half-life (T½) compared to the reference examples.

[2] = Brain to plasma (B:P) ratio in rat; assay type: in vivo, Sprague Dawley Rats; details: male, Sprague Dawley, po, p.o. 3.0 mg/kg, 30% HPBC in water, timepoints averaged 0.5-4 h
Method: Male Sprague Dawley Rats 300-350 g (Charles River, UK) were group housed, n=3, under a 12 h light/dark cycle with food and water available ad libitum. At 17:00 on the day prior to dosing all food was removed. On the day of dosing animals were weighed, tail marked and dosed via oral gavage with compound at 3 mg/kg in a volume of 5 mL/kg. Animals were culled at 30 min, 1 h and 4 h post dose via intra-peritoneal administration of pentobarbital. Post mortem blood was withdrawn via cardiac puncture, and briefly stored in K2 EDTA blood tubes on ice before being spun at 14,000 g for 4 min at 4° C. Plasma was withdrawn into a 96 well plate, placed on dry ice and stored at −80° C. Brains were quickly dissected and placed on dry ice before storage at −80° C. Bioanalysis of plasma and brain samples is performed as detailed below. Methods were prepared with guidance from industry standard documents.^i,ii […] Calibration lines are prepared in control male Sprague-Dawley Rat plasma at known concentrations in the range of 1-10000 ng/mL by spiking 2.5 μL of calibration spiking solution into 25 μL control plasma. Experimental samples are thawed to RT and 25 μL aliquots are extracted alongside the calibration lines using protein precipitation (agitation for at least 5 min at RT with 400 μL of MeCN containing 25 ng/mL tolbutamide as an internal standard). Protein precipitates are separated from the extracted test compound by centrifugation at 4000 rpm for 5 min, 4° C. […] Samples are analysed by UPLC-MS/MS on either an API6500 QTrap or Waters 30 TQS mass spectrometer using previously optimised analytical MRM (multiple reaction monitoring) methods, specific to the test compound. The concentration of test compound in isolated samples is determined following analysis of the samples against the two replicates of the calibration line, injected before and after the sample set with an appropriate regression and weighting used. Only samples within 20% of the expected test concentration are included in the calibration line and any samples that fall outside of the limits of the calibration line will be deemed to be less than or above the limit of quantification (LLoQ/ALoQ). […] Calibration lines are prepared in control male Sprague-Dawley Rat brain homogenate at known concentrations in the range of 3-30000 ng/g by spiking 2.5 μL of calibration spiking solution into 25 μL control homogenate. To prepare control and experimental brain homogenates, brains are thawed, weighed and a volume of diluent added (water) in the ratio of 2 mL per gram of brain. Homogenisation of brains is performed by bead-beater homogenisation using Precellys Evolution and CK14 7 mL small ceramic bead homogenisation tubes. Aliquots of 25 μL experimental sample are extracted alongside the calibration lines using protein precipitation (agitation for at least 5 min at RT with 400 μL of MeCN containing 25 ng/mL tolbutamide as an internal standard). Protein precipitates are separated from the extracted test compound by centrifugation at 4000 rpm for 5 min, 4° C. […] Samples are analysed by UPLC-MS/MS on either an API6500 QTrap or Waters TQS mass spectrometer using previously optimised analytical MRM (multiple reaction monitoring) methods, specific to the test compound. The concentration of test compound in isolated samples is determined following analysis of the samples against the two replicates of the calibration line, injected before and after the sample set with an appropriate regression and weighting used. Only samples within 20% of the expected test concentration are included in the calibration line and any samples that fall outside of the limits of the calibration line will be deemed to be less than or above the limit of quantification (LLoQ/ALoQ). Total brain to plasma (B:P) ratios were calculated by dividing the concentration in the brain by the concentration in plasma for each timepoint. The mean brain to plasma ratio is calculated by averaging these brain to plasma ratios across certain timepoints. […]

O=C(Nc1ccc(OC(F)(F)Cl)cc1)c1ccc(=O)n(-c2ccccc2)c1 [Example 56, N-[4-[Chloro(difluoro)methoxy]phenyl]-6-oxo-1-phenyl-pyridine-3-carboxamide]
clearance ([1]; iv): 1.9 mL/min/kg | half-life ([1]; iv, read-out: T½ (converted)): 20 h | bioavailability ([1]; po, p.o. dose 3 mg/kg): 97% | Kp [2]: 1.91
